# Data from patent publication EP0712403B1, “MATRIX METALLOPROTEASE INHIBITORS” (SYNTEX (U.S.A.) INC., priority 1993, dated 1995).
# How the values were obtained:
# cartilage explants = experiment: Release of 35S-labelled glycosaminoglycans from cartilage explants; type: cell-based; settings: Bos taurus; inhibition of rhIL-1-alpha induced release of 35S-labelled GAG's, bovine knee joint cartilage explants
# Description: This assay determines if the compounds of formula (I) inhibit the release of ^35S-labelled glycosaminoglycans (GAG's) from cartilage explants.
# Small cartilage explants (3 mm diameter) were prepared from freshly sacrificed bovine knee joints and labeled with ^35SO4. ^35S-labelled glycosaminoglycans (GAG's) are released into the culture medium in response to the addition of rhIL-1-alpha, which induces the expression of chondrocyte matrix metalloproteases (MMP's), including stromelysin and collagenase. The percent inhibition of labeled GAG's was corrected for spontaneous release in the absence of rhlL-1-alpha. Results for each group represent the mean ± the S.E.M. for five explants.
# Matr = target: T1, Matr (Homo sapiens, UniProt P09237); experiment: In vitro metalloprotease inhibition assay (thiopeptide/DACM fluorescence); type: biochemical; settings: read-out: Ki or IC50 Matr
# T1 sequence (P09237 95-267): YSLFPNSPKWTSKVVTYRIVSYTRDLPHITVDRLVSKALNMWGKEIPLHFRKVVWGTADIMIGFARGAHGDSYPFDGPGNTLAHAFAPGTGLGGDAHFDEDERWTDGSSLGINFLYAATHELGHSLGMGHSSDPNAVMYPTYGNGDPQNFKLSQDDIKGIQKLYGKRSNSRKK
# HNG = HNG (Homo sapiens, UniProt P14780); experiment: as above; type: biochemical; settings: read-out: Ki or IC50 HNG
# Chain of HNG (P14780 107-707 limits assumed): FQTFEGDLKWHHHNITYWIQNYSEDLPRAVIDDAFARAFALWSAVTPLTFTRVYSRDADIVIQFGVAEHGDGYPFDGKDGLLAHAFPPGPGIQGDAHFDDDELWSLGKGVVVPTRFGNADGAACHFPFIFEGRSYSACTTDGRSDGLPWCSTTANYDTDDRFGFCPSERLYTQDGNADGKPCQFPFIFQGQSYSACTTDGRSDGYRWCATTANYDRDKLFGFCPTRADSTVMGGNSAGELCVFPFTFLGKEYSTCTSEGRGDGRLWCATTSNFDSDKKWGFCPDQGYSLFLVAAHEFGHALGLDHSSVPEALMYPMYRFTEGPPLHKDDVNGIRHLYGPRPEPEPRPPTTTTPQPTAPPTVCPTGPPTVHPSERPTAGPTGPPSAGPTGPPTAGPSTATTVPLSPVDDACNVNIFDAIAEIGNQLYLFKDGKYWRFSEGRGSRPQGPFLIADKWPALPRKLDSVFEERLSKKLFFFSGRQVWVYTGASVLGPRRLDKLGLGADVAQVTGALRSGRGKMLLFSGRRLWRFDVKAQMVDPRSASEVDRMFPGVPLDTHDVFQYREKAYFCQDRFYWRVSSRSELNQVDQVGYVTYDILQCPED
# Description: (§1) Compounds of formula (I) were dissolved in DMSO and added to a cuvette containing 0.2 µg Type I or 0.03 µg Type IV collagenase in 1 ml TC buffer (20mM Tris, 5mM CaCl2, pH 7.5) (2% DMSO final concentration). The concentrations of the compounds of formula (I) were chosen such that there was at least one data point for every 20% change in activity. Enzyme and compounds were permitted to pre-incubate 3 min at 37°C. To initiate the reaction, N-(7-dimethylamino-4-methyl)coumarinyl ("DACM") (Sigma) and thiopeptide (Ac-Pro-Leu-Gly-S-"Leu"-Leu-Gly-OEt, Bachem Bioscience Inc.) were added to 20 uM each. […] Each data point is the average of duplicate experiments. At least six data points, expressed as change in fluorescence per minute versus compound concentration were analyzed using the IC50 fit in the program, Enzfitter.
# HNC = HNC (Homo sapiens, UniProt P22894); experiment: as above; type: biochemical
# Chain of HNC (P22894 101-467): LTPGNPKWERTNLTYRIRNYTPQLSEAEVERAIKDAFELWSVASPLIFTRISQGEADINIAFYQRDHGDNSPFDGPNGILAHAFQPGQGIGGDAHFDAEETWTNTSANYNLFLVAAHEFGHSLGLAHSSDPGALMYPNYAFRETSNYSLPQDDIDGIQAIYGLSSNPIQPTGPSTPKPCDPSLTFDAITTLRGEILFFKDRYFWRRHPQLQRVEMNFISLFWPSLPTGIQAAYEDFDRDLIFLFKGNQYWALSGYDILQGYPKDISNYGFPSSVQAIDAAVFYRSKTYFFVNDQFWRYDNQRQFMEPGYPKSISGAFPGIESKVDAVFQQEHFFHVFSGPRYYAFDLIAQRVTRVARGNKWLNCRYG
# HFC = target: T2, HFC (Homo sapiens, UniProt P03956); experiment: In vitro collagenase inhibition assay (thiopeptide/DACM fluorescence); type: biochemical
# T2 construct: endogenous in cells; host or cells: GM0010A fibroblasts stimulated with PMA; enzyme purified from serum-free culture medium
# T2 sequence (P03956 100-469): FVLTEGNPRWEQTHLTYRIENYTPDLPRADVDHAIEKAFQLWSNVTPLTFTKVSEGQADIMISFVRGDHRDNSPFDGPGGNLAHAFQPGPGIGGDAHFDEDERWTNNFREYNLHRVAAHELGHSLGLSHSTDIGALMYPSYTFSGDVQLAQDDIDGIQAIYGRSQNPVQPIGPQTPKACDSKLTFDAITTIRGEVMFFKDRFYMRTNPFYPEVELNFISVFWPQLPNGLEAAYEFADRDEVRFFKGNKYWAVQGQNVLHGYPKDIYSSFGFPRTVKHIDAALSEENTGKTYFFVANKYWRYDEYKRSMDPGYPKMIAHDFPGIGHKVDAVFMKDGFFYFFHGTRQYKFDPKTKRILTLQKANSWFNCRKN
# Description: as §1
# fetal rat long bones = experiment: Fetal rat long bone model, bovine PTH induced bone resorption (45Ca release); type: cell-based; settings: 144 h
# Description: An in vitro fetal rat long bone model was used to study the anti-bone resorptive effect of the compounds of formula (I). Bovine PTH was used to induce bone resorption in vitro. The bone resorptive effects were expressed by the amounts of ^45Ca released from the ^45Ca pre-labelled fetal rat long bones into the culture medium. The inhibitory effect of the compounds of formula (I) against bovine PTH induced bone resorption was expressed as mean percent inhibition ± sem.
# ^45Ca-prelabelled fetal rat long bones (from forearms) were dissected and cultured in Linbro dishes at 37°C overnight BGJb medium, supplemented with 1mg/ml BSA. There were five pairs of bones in each group. The compounds of formula (I) were dissolved in ethanol first, then diluted to various concentrations and added simultaneously with Bovine PTH (1-34) at 1x10^8M on Day 1. […] The assay was terminated on Day 6 with one media change on Day 3.
# At the end of each medium change, the ^45Ca present in the culture medium was counted. The remaining bones were digested with 0.1N HCl and the ^45Ca presented in the bone digest was also counted. The results are expressed as % of the total ^45Ca released from each pair of bones. Bovine PTH at 1x10^-8M induces bone resorption to the maximum level which is set as 100% and this concentration was used as standard. […]
# SLN = SLN (Homo sapiens, UniProt P08254); experiment: In vitro metalloprotease inhibition assay (thiopeptide/DACM fluorescence); type: biochemical
# Chain of SLN (P08254 100-477): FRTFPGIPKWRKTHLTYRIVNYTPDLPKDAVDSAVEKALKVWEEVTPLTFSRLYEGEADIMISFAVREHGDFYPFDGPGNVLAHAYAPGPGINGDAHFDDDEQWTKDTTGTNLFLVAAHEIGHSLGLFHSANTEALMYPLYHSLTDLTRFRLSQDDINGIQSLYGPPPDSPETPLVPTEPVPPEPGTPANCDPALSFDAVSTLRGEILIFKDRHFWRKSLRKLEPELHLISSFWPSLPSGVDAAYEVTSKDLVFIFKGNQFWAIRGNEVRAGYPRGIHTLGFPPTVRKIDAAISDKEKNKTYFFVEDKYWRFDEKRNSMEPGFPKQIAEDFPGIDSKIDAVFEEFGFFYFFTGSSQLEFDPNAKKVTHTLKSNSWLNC
IC50 (Matr),SMILES,IC50 (cartilage explants),IC50 (HNG),IC50 (HNC),IC50 (HFC),IC50 (fetal rat long bones),IC50 (SLN)
3 nM,"CC(C)CC(CC(=O)NO)C(=O)N[C@H]1Cc2cn(c3ccccc23)CCCCCCCNC1=O (stereo partly drawn) [Compound 2, (11S)-N-hydroxy-5-methyl-3-(10-oxo-1,9-diazatricyclo-[11.6.1.0^14,19]eicosa-13(20),14(19),15,17-tetraen-11-ylcarbamoyl)hexanamide]",40000 nM,0.2 nM,–,–,–,–
–,"CC(C)CC(CP(=O)(O)CSc1ccc2ccccc2n1)C(=O)N[C@H]1Cc2cn(c3ccccc23)CCCCCCNC1=O (stereo partly drawn) [Compound 4, (10S)-[4-methyl-2-(9-oxo-1,8-diazatricyclo[10.6.1.0^13,18]nonadeca-12(19),13(18),14,16-tetraen-10-ylcarbamoyl)pentyl] (quinolin-2-ylthiomethyl)phosphinic acid]",50000 nM,14 nM,4 nM,5 nM,5000 nM,> 800 nM
